Each structure is given as a SMILES string. “And” between values parts separate entries of the source, which are not always exact repeats. Identical values can stand only once.

The assay deals with 876862-298-R-J1-PDC complex spheroids, viability % test/control. As to the kind of experiment: Anticancer human tumor 876862-298-R-J1-PDC patient-derived endometrial carcinoma cell line growth inhibition [CLK]. As to conditions: for viability, T/C: stronger effect = lower value; for IC50: curve of compound. An excerpt:
A high-throughput screen of multi-cell type tumor spheroids was designed to identify active combinations of […] and targeted small molecules. Complex spheroids include a stromal component modeled by human endothelial cells (HUVEC) and fibroblasts modeled by human mesenchymal stem cells (MSCs). The concentration ranges selected for each drug and investigational agent were based upon clinically achievable concentrations if the clinical Cmax of the agent was known.
Compounds. The drugs and investigational agents: cirtuvivint (SM08502; NSC835563), CC-671 (NSC850746), vemurafenib (NSC761431), tapotoclax (NSC804041), sotorasib (NSC818433), adagrasib (NSC831453), MRTX-1133 (NSC836407), BAY2416964 (NSC825713), copanlisib (NSC816437), inavolisib (NSC800729), abemaciclib (NSC768073), osimertinib (NSC779217), entinostat (NSC756642), eltanexor (KPT-8602, NSC794443), venetoclax (NSC766270), ceralasertib (NSC777638), bortezomib (NSC756655), olaparib (NSC753686), talazoparib (NSC767125), alisertib (NSC759677), peposertib (NSC802822), gemcitabine (NSC613327), 5-fluorouracil (NSC19893), SN-38 (NSC673596), oxaliplatin (NSC266046), paclitaxel (NSC125973), and doxorubicin (NSC123127), were obtained from the National Cancer Institute (NCI) Developmental Therapeutics Program Chemical Repository. The FDA-approved anticancer drug set is available from the Developmental Therapeutics Program at https://dtp.cancer.gov/organization/dscb/obtaining/available plates.htm. […] The stock solutions were prepared in dimethyl sulfoxide (DMSO, Sigma-Aldrich, St. Louis, MO, cat. D2650), except for the platinum complexes which were prepared in saline (Quality Biological, Gaithersburg, MD, cat. 114-055-101), at 800-fold the tested concentration and stored at -70 degrees C prior to their use. All drugs and investigational agents were tested over a range starting from a high concentration at or near the clinical Cmax and decreasing in half-log increments. If the clinical Cmax for an agent had not been determined, the highest concentration tested was 10 microM.
Cell Culture. All cells were maintained in an incubator at 37 degrees C and 5% CO2 with 95% humidity. The PDC lines were cultured according to standard operating procedures established by the NCI PDMR. Briefly, all PDCs were thawed and cultured in Matrigel-coated flasks prepared with a working solution of 1X Ham's F-12 nutrient mix, without supplementation (Invitrogen, Waltham, MA, cat. 11765054), 100 U/mL penicillin-streptomycin (Invitrogen, cat. 15140122), and 2.5% Matrigel (Corning Inc., Corning, NY, cat. 354248) for the first three passages. The 947758-054-R-J2-PDC line was cultured in 6B/Colon 1A media, which includes advanced DMEM/F-12 (Thermo Fisher Scientific, cat. 12634028), 10 mM HEPES (Thermo Fisher Scientific, cat. 15630080), 1X GlutaMAX supplement (Thermo Fisher Scientific, cat. 35050061), 0.1 mg/mL primocin (InvivoGen, cat. ant-pm-2), 10% defined fetal bovine serum, heat inactivated (HyClone Laboratories Inc., cat. SH30070.03HI), 1.25 mM N-Acetyl-L-cysteine (Sigma-Aldrich, cat. A9165), 10 mM nicotinamide (Sigma-Aldrich, cat. N0636), 1X B-27 supplement (Thermo Fisher Scientific, cat. 17504044), 1X N-2 supplement (Thermo Fisher Scientific, cat. 17502048), and 10 microM Y-27632 dihydrochloride (Tocris Bioscience, cat. 1254). The 876862-298-R-J1-PDC was cultured in 6E media, which includes all 6B/Colon 1A media components plus 50% L-WRN conditioned media (ATCC, cat. CRL-3276), 50 ng/mL recombinant human EGF recombinant protein (hEGF; Thermo Fisher Scientific, cat. PHG0311), 10 ng/mL recombinant human fibroblast growth factor 10 (hGFG-10; PeproTech, cat. 100-26), 1 ng/mL recombinant human fibroblast growth factor 2 (hFGF-2; PeproTech, cat. 100-18B), and 1 µM prostaglandin E2 (PGE2; Tocris, cat. 2296). The 227483-062-R1-J1-PDC line was cultured in Panc media, containing all 6E components except hFGF-2, with the addition of 500 nM SB-431542 (Selleckchem, cat. S1067) and 10 nM gastrin (Tocris, cat. 3006). […]
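Further: spheroids exposed to drugs for 7 days before readout.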
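Wherever viability, T/C is given: 100% = DMSO vehicle control wells.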

By viability, T/C is commonly meant the ratio of treated to control. A word on the IC50: it is the concentration that inhibits the measured activity by half. Turning to `CC(=O)O[C@H]1C(=O)[C@@]2(C)[C@H]([C@H](OC(=O)c3ccccc3)[C@]3(O)C[C@H](OC(=O)[C@H](O)[C@@H](NC(=O)c4ccccc4)c4ccccc4)C(C)=C1C3(C)C)[C@]1(OC(C)=O)CO[C@@H]1C[C@@H]2O`, the half-maximal inhibitory concentration (IC50) is under 0.0316 µM. In addition, for the setting “compound 0.0316 µM”, the viability, T/C was 25.9% and 26.5%. Also, for the setting “compound 0.1 µM”, the viability, T/C was 23.7% and 22.9%. In addition, under “compound 0.316 µM”, the viability, T/C is 23% and 20%. Besides, the viability, T/C (compound 1 µM) is 25.4% and 25.1%. Also, where the note is “compound 3.16 µM”, the viability, T/C was 29.2% and 23.1%. Besides, the viability, T/C (compound 10 µM) was 32.2% and 26.1%.

For the molecule `CC1(C)CCC(CN2CCN(c3ccc(C(=O)NS(=O)(=O)c4ccc(NCC5CCOCC5)c([N+](=O)[O-])c4)c(Oc4cnc5[nH]ccc5c4)c3)CC2)=C(c2ccc(Cl)cc2)C1`, the IC50 was 6.49 µM and 6.29 µM. In addition, the viability, T/C (compound 0.0316 µM) is 102% and 88.4%. In addition, the viability, T/C (compound 0.1 µM) is 92% and 101%. Also, the viability, T/C (compound 0.316 µM) was 105% and 99.1%. Further, under “compound 1 µM”, the viability, T/C was 102% and 106%. Further, the viability, T/C (compound 3.16 µM) was 111% and 121%. The viability, T/C (compound 10 µM) is 18.4% and 14.2%.

Take `CC1COCCN1c1cc(C2(S(C)(=N)=O)CC2)nc(-c2ccnc3[nH]ccc23)n1` (stereo not drawn): the IC50 was 3.89 µM and 2.62 µM. Besides, the viability, T/C (compound 0.0316 µM) is 110% and 102%. Moreover, the viability, T/C (compound 0.1 µM) is 99.5% and 104%. Further, under “compound 0.316 µM”, the viability, T/C is 89.4% and 94.8%. For the same molecule, the viability, T/C (compound 1 µM) is 77.1% and 79.5%. The viability, T/C (compound 3.16 µM) was 55% and 44%. For the same molecule, where the note is “compound 10 µM”, the viability, T/C was 27% and 18.8%.

With `COc1ccc([C@@H](O)c2cc(-c3ncnc4cc(N5CCOCC5)ccc34)c(F)cc2Cl)nn1`, the IC50 is 9.98 µM and 5.39 µM. For the same molecule, the viability, T/C (compound 0.0316 µM) was 109% and 103%. For the same molecule, the viability, T/C (compound 0.1 µM) is 88.9% and 106%. The viability, T/C (compound 0.316 µM) is 108% and 101%. In addition, the viability, T/C (compound 1 µM) is 98.5% and 89.7%. The viability, T/C (compound 3.16 µM) is 73.1% and 69%. Under “compound 10 µM”, the viability, T/C was 49.9% and 28.5%.

`COc1cccc2c1C(=O)c1c(O)c3c(c(O)c1C2=O)CC(O)(C(=O)CO)CC3OC1CC(N)C(O)C(C)O1` (stereo not drawn): the IC50 is under 0.0316 µM. Moreover, where the note is “compound 0.0316 µM”, the viability, T/C was 41.8% and 33.2%. Moreover, the viability, T/C (compound 0.1 µM) is 16.9% and 13.5%. In addition, the viability, T/C (compound 0.316 µM) was 7.66% and 6.87%. Moreover, under “compound 1 µM”, the viability, T/C was 7.07% and 7.16%. Moreover, where the note is “compound 3.16 µM”, the viability, T/C is 0.89% and 0.78%. Moreover, for the setting “compound 10 µM”, the viability, T/C was 4.03% and 4%.

Regarding `Nc1ccccc1NC(=O)c1ccc(CNC(=O)OCc2cccnc2)cc1`, the half-maximal inhibitory concentration (IC50) is 7.34 µM and 6 µM. Further, the viability, T/C (compound 0.0316 µM) was 99.9% and 95.4%. Also, the viability, T/C (compound 0.1 µM) was 106% and 99.6%. For the same molecule, the viability, T/C (compound 0.316 µM) is 105%. In addition, the viability, T/C (compound 1 µM) was 91.7% and 106%. For the same molecule, the viability, T/C (compound 3.16 µM) is 80.1% and 75.2%. The viability, T/C (compound 10 µM) was 39.1% and 29.7%.

With `Nc1ccn(C2OC(CO)C(O)C2(F)F)c(=O)n1` (stereo not drawn), the IC50 was under 0.0316 µM. Also, the viability, T/C (compound 0.0316 µM) is 12.8% and 8.55%. Moreover, for the setting “compound 0.1 µM”, the viability, T/C is 7.47% and 6.97%. For the same molecule, the viability, T/C (compound 0.316 µM) is 7.3% and 6.5%. In addition, the viability, T/C (compound 1 µM) is 6.05% and 6.36%. In addition, the viability, T/C (compound 3.16 µM) was 6.22% and 8.41%. Besides, under “compound 10 µM”, the viability, T/C was 7.04% and 6.47%.

Consider `O=C(c1cc(Cc2n[nH]c(=O)c3ccccc23)ccc1F)N1CCN(C(=O)C2CC2)CC1`, for which the concentration for half-maximal inhibition (IC50) was over 10 µM. Moreover, for the setting “compound 0.0316 µM”, the viability, T/C is 105% and 91.5%. In addition, the viability, T/C (compound 0.1 µM) is 107% and 99%. In addition, the viability, T/C (compound 0.316 µM) is 109% and 99.4%. For the same molecule, for the setting “compound 1 µM”, the viability, T/C is 109% and 104%. In addition, the viability, T/C (compound 3.16 µM) was 108% and 106%. In addition, the viability, T/C (compound 10 µM) was 90.4% and 89.1%.

Take `O=c1[nH]cc(F)c(=O)[nH]1`: the IC50 is > 10 µM and 6.77 µM. In addition, where the note is “compound 0.0316 µM”, the viability, T/C is 99.1% and 101%. Also, the viability, T/C (compound 0.1 µM) was 93.2% and 107%. In addition, for the setting “compound 0.316 µM”, the viability, T/C was 100% and 99.6%. Also, the viability, T/C (compound 1 µM) was 104% and 101%. Moreover, for the setting “compound 3.16 µM”, the viability, T/C was 70% and 56.4%. The viability, T/C (compound 10 µM) is 54.1% and 46.7%.

For the origin of these results see PubChem BioAssay AID2060607 (Molecular Pharmacology Branch, DTP, NCI, 2025).
